# In patent US20060089499A1, “Pyrazolopyrimidines and the use thereof for controlling harmful organisms” (priority 2002, published 2006):
# Test system: Venturia inaequalis
# Assay: Venturia test (apple)/protective
# Format: in vivo
# Settings: topical, 240 h, protective, application rate 100 g/ha, evaluation 10 days after inoculation, read-out: Efficacy in %
# Experimental: Venturia Test (Apple)/Protective [table] To produce a suitable preparation of active compound, 1 part by weight of active compound is mixed with the stated amounts of solvent and emulsifier, and the concentrate is diluted with water to the desired concentration. To test for protective activity, young plants are sprayed with the preparation of active compound at the stated application rate. After the spray coating has dried on, the plants are inoculated with an aqueous conidia suspension of the apple scab pathogen Venturia inaequalis and then remain in an incubation cabin at about 20° C. and 100% relative atmospheric humidity for 1 day. The plants are then placed in a greenhouse at about 21° C. and a relative atmospheric humidity of about 90%.
row,Compound,pest or weed control at 100 g/ha
1,CC(Nc1c(-c2ccc(F)cc2Cl)c(Cl)nc2c(C#N)cnn12)C(F)(F)F (stereo not shown) [drawing 103],93%
2,C[C@H](Nc1c(-c2ccc(F)cc2Cl)c(Cl)nc2c(C#N)cnn12)C(F)(F)F [drawing 104],100%
3,CC(C)CN(C)c1c(-c2ccccc2Cl)c(Cl)nc2c(C#N)cnn12 [drawing 105],100%
4,CC1CCN(c2c(-c3ccccc3Cl)c(Cl)nc3c(C#N)cnn23)CC1 [drawing 106],99%
5,N#Cc1cnn2c(N3CCC(F)CC3)c(-c3c(F)cccc3Cl)c(Cl)nc12 [drawing 107],98%
6,CC(C)CN(C)c1c(-c2c(F)cccc2Cl)c(Cl)nc2c(C#N)cnn12 [drawing 108],99%
7,C=C(C)CN(CC)c1c(-c2c(F)cccc2Cl)c(Cl)nc2c(C#N)cnn12 [drawing 109],100%
8,C[C@H](Nc1c(-c2c(F)cccc2Cl)c(Cl)nc2c(C#N)cnn12)C(F)(F)F [drawing 110],100%

# Test system: Alternaria solani
# Assay: Alternaria test (tomato)/protective
# Format: in vivo
# Settings: protective, application rate 750 g/ha, evaluation 7 days after inoculation
# Experimental: (Tomato)/Protective [table] To produce a suitable preparation of active compound, 1 part by weight of active compound is mixed with the stated amounts of solvent and emulsifier, and the concentrate is diluted with water to the desired concentration. To test for protective activity, young tomato plants are sprayed with the preparation of active compound at the stated application rate. 1 day after the treatment, the plants are inoculated with a spore suspension of Alternaria solani and then remain at 100% rel. humidity and 20° C. for 24 h. The plants then remain at 96% rel. atmospheric humidity and a temperature of 20° C.
row,Compound,Efficacy in %
1,N#Cc1cnn2c(N3CCOCC3)c(-c3c(F)cccc3Cl)c(Cl)nc12 [drawing 131],95%
2,N#Cc1cnn2c(N3CCCCC3)c(-c3c(F)cccc3Cl)c(Cl)nc12 [drawing 132],95%
3,CC(C)CNc1c(-c2ccc(F)cc2F)c(Cl)nc2c(C#N)cnn12 [drawing 133],95%
4,C=C(C)CN(CC)c1c(-c2c(F)cc(F)cc2F)c(Cl)nc2c(C#N)cnn12 [drawing 134],95%
5,C[C@H](Nc1c(-c2c(F)cc(F)cc2F)c(Cl)nc2c(C#N)cnn12)C(F)(F)F [drawing 135],95%
6,N#Cc1cnn2c(N3CCC(F)(F)CC3)c(-c3c(F)cc(F)cc3F)c(Cl)nc12 [drawing 136],90%

# Test system: Fusarium nivale (var. majus)
# Assay: Fusarium nivale (var. majus) test (wheat)/protective
# Format: in vivo
# Settings: protective, application rate 500 g/ha, evaluation 6 days after inoculation
# Experimental: Fusarium nivale (var. majus) Test (Wheat)/Protective [table] To produce a suitable preparation of active compound, 1 part by weight of active compound is mixed with the stated amounts of solvent and emulsifier, and the concentrate is diluted with water to the desired concentration. To test for protective activity, young plants are sprayed with the preparation of active compound at the stated application rate. After the spray coating has dried on, the plants are sprayed with a conidia suspension of Fusarium nivale (var. majus). The plants are placed in a greenhouse under transparent incubation hoods at a temperature of about 15° C. and a relative atmospheric humidity of about 100%.
row,Compound,Efficacy in %
1,CC(Nc1c(-c2ccc(F)cc2Cl)c(Cl)nc2c(C#N)cnn12)C(F)(F)F (stereo not shown) [drawing 137],88%
2,C=C(C)CN(CC)c1c(-c2c(F)cc(F)cc2F)c(Cl)nc2c(C#N)cnn12 [drawing 138],100%
3,C[C@H](Nc1c(-c2c(F)cc(F)cc2F)c(Cl)nc2c(Cl)cnn12)C(F)(F)F [drawing 139],80%

# Test system: Pyricularia oryzae
# Assay: not given
# Format: in vivo
# Settings: rice, protective, application rate 500 g/ha, evaluation 6 days after inoculation
row,Compound,Efficacy in %
1,C[C@H](Nc1c(-c2c(F)cc(F)cc2F)c(Cl)nc2c(Cl)cnn12)C(F)(F)F [drawing 140],88%
2,C[C@H](Nc1c(-c2c(F)cc(F)cc2F)c(Cl)nc2c(C#N)cnn12)C(F)(F)F [drawing 141],88%
3,N#Cc1cnn2c(NCC3CC3)c(-c3c(F)cc(F)cc3F)c(Cl)nc12 [drawing 142],86%
4,C[C@H](Nc1c(-c2ccccc2F)c(Cl)nc2c(C#N)cnn12)C(F)(F)F [drawing 143],75%

# Test system: diamondback moth (Plutella xyostella)
# Assay: Plutella test (plant-damaging insects)
# Format: in vivo
# Settings: 1000 ppm active compound on synthetic feed, eggs/larvae
# Experimental: Plutella Test [table] To produce a suitable preparation of active compound, 1 part by weight of active compound is mixed with the stated amount of solvent, and the concentrate is diluted with methanol to the desired concentrations. A stated amount of preparation of active compound of the desired concentration is pipetted onto a standardized amount of synthetic feed. After the methanol has evaporated, about 200-300 eggs of the diamondback moth (Plutella xyostella) are placed onto the feed. After the desired period of time, the kill of the eggs or larvae in % is determined. 100% means that all animals have been killed; 0% means that none of the animals has been killed.
row,Compound,Kill rate in % after 7^d
1,CC(Nc1c(-c2ccc(F)cc2Cl)c(Cl)nc2c(C#N)cnn12)C(F)(F)F (stereo not shown) [drawing 144],100%
